Read-outs that look alike come from different tables or passages of the source.
Biological target: T1, glucocorticoid receptor (GR) (Rattus norvegicus, UniProt P06536)
T1 construct: cytosol preparations that consist of the thymus homogenates of rats; from tissue; host or cells: rat thymus homogenate, cytosol
T1 sequence (P06536 1-795): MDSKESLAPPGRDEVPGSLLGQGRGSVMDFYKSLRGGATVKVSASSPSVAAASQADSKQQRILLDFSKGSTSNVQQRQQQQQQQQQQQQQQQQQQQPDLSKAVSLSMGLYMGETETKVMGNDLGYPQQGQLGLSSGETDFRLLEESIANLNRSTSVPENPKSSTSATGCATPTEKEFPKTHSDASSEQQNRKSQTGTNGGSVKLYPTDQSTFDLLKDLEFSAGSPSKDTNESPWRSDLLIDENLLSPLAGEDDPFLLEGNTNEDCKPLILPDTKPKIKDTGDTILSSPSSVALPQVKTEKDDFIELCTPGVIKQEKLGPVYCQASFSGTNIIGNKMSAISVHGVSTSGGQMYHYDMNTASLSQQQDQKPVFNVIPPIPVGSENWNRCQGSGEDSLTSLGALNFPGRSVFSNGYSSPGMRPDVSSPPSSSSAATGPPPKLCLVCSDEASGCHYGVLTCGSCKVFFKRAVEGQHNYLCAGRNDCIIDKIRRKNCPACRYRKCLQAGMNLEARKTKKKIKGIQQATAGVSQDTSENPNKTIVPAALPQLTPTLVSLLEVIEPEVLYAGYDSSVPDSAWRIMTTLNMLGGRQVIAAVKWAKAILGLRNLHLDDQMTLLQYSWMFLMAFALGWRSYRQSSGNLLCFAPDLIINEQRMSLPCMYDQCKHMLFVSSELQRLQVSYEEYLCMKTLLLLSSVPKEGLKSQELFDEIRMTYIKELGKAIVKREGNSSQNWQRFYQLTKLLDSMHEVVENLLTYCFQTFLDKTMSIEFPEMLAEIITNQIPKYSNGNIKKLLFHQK
Test: glucocorticoid receptor (GR)-binding test, cytosol of rat thymus homogenates, [3H]-dexamethasone

[1] = 10 nM [3H]-dexamethasone, rat thymus cytosol, read-out: IC50 (GR-binding test)

| SMILES | IC50 [nM] | IC50 [1] [nM] |
| --- | --- | --- |
| COc1ccc(F)cc1C(C)(C)CC(O)(C(=O)Nc1ccc2c(=O)onc(C)c2c1)C(F)(F)F (centres unmarked) [iii, 6-[4-(5-fluoro-2-methoxyphenyl)-2-hydroxy-4-methyl-2-trifluoromethyl-valeroylamino]-4-methyl-2,3-benzoxazin-1-one] |  | 4.6 |
| COc1cc(Br)ccc1C(C)(C)CC(O)(C(=O)Nc1ccc2c(=O)onc(C)c2c1)C(F)(F)F (centres unmarked) [iv, 6-[4-(4-bromo-2-methoxyphenyl)-2-hydroxy-4-methyl-2-trifluoromethyl-valeroylamino]-4-methyl-2,3-benzoxazin-1-one] |  | 4.9 |

Second part, the molecule after the results:

| IC50 [nM] | IC50 [1] [nM] | SMILES |
| --- | --- | --- |
| 2.8 |  | CC(C)(CC(O)(C(=O)Nc1ccc2c(c1)COC2=O)C(F)(F)F)c1cc(F)ccc1O (centres unmarked) [i, 5-[4-(5-Fluoro-2-hydroxyphenyl)-2-hydroxy-4-methyl-2-trifluoromethyl-valeroylamino]-phthalide] |
|  | 2.3 | CC(C)(CC(O)(CNc1ccc2c(c1)COC2=O)C(F)(F)F)c1cc(F)ccc1O (centres unmarked) [ii, 5-[4-(5-fluoro-2-hydroxyphenyl)-2-hydroxy-4-methyl-2-trifluoromethyl-pentylamino]-phthalide] |
| 2.6 |  | Cc1noc(=O)c2ccc(NC(=O)C(O)(CC(C)(C)c3cc(F)ccc3O)C(F)(F)F)cc12 (centres unmarked) [v, 6-[4-(5-fluoro-2-hydroxyphenyl)-2-hydroxy-4-methyl-2-trifluoromethyl-valeroylamino]-4-methyl-2,3-benzoxazin-1-one] |

— patent publication US6323199A, “Nonsteroidal anti-inflammatory agents” (Schering Aktiengesellschaft, priority 1998, dated 2001)
